According to patent US7915293B2, “Ubiquitin ligase inhibitors” (Rigel Pharmaceuticals, Inc., priority 2003, dated 2011):
One block for each compound: values may come before it.

Assays:
Design in all cases: key: “+” indicates that the compound exibits inhibitory activity; “−” indicates that low or no inhibitory activity was observed
[1] = target: E3 (His-APC11/APC2-"APC") (Homo sapiens, UniProt Q9NYG5+Q9UJX6); test: Plate-based E3 ligase assay (APC FLAG), auto-ubiquitination; format: biochemical; conditions: 8 concentrations tested
Procedure, shortened: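 His-APC11/APC2 auto-ubiquitination was run in casein-blocked nickel plates for 1 h at room temperature, with E1 at 5 ng/well, UbcH5c at 20 ng/well and APC at 100 ng/well. Buffer was 62.5 mM Tris pH 7.6, 3 mM MgCl2, 1 mM DTT, 2.5 mM ATP and Flag-ubiquitin at 100 ng/well. Detection used anti-Flag/HRP chemiluminescence, and IC50 was typically from 6 or 8 concentrations versus a DMSO control.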

[2] = tested on: A549 cells; test: Non-photographic proliferation analysis (Promega Cell titer Aqueous), A549; format: cell-based; conditions: 6 concentrations tested
Method: (§1) A549 (ATCC# CCL-185), HeLa (ATCC# CCL-2), HCT116 (ATCC# CCL-247), and H1299 (ATCC# CRL-5803) cells were maintained in T175 flasks following the ATCC recommended media and handling procedures. Flasks reaching approximately 70% confluency were trypsinized and resuspended in RPMI media (Cell-Gro catalog number 10-040-CM) modified to contain 5% FBS, 100 ug/mlPen/Strep (Cell-Gro catalog number 30-002-CL), and 0.3 mg/ml L-Glutamine (Cell-Gro catalog number 25-003-CL). A 20,000 cells/ml solution was made for plating. Cells were plated in black Packard 96 well plates by placing 100 μl per well (2,000 cells per well).
(§2) Compounds and additional media were added 24 hours after cell plating. A compound master plate was created with concentrations 500 times greater than the final concentration added to the cells. All compound testing was done in duplicate using 6.3 fold dilutions starting with 10 mM. All outside wells (and 4 internal wells) were DMSO controls. Taxol and at least one additional control were run on all plates. Three microliters of the compound master plate were added to deep well blocks containing 750 μl of RPMI media. One hundred microliters were transferred from the compound/media deep well blocks to the plated cells resulting in a 500 fold dilution of the compounds. Cells were grown at 37° C., 5% CO2 for 48 hours.
(§3) Some cell plates were treated with Promega Cell titer Aqueous 1 kit (promega—VWR catalog number G3580). In this case, 48 hours after the test compound were added, 100 μl of media were removed and 20 μl of cell titer reagent were added to all wells. Plates were incubated at 37° C. for 45 minutes prior to absorbance reads on the Wallac plate reader at 490 nm for 0.1 sec/well.

[3] = tested on: A549 cells; test: Cell proliferation assay, photographic image analysis of proliferation, apoptosis and death (PAD assay), A549; format: cell-based; conditions: 6 concentrations tested
Procedure, shortened: (§4)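 Cells grown in RPMI with 5% FBS (2,000/well) and dosed 24 h after plating with 6.3-fold dilutions in duplicate (master plate 500× final, top 10 mM stock). After 48 h at 37 °C, cells formamide-fixed and DAPI-stained. Image analysis counted live, apoptotic and dead cells.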

[4] = tested on: HeLa cells; test: Non-photographic proliferation analysis (Promega Cell titer Aqueous), HeLa; format: cell-based; conditions: 6 concentrations tested
Method: as §1, §2, §3

[5] = tested on: HCT116 cells; test: Non-photographic proliferation analysis (Promega Cell titer Aqueous), HCT116; format: cell-based; conditions: 6 concentrations tested
Method: as §1, §2, §3

[6] = tested on: HeLa cells; test: Cell proliferation assay, photographic image analysis of proliferation, apoptosis and death (PAD assay), HeLa; format: cell-based; conditions: 6 concentrations tested
Procedure, shortened: as §4

[7] = tested on: HCT116 cells; test: Cell proliferation assay, photographic image analysis of proliferation, apoptosis and death (PAD assay), HCT116; format: cell-based; conditions: 6 concentrations tested
Method: as §1, §2
Cells to be analyzed by photography were fixed and stained. One hundred microliters of media were removed and 100 μl of 9.3% […] was added to each well. Plates were left on the benchtop for 45 minutes. A staining solution containing 1.55 μl of 1 mg/ml DAPI added to 18.75 ml PBS was warmed for 15 minutes at 37° C. The cells were aspirated prior to washing with 100 μl of PBS. Seventy microliters of PBS were aspirated and 170 μl of the DAPI solution were added to each well of fixed cells. Plates were left at room temperature for one hour then aspirated and washed twice with 100 μl of PBS. The stained cells were left at 4° C. for a minimum of 16 hours before photographic analysis with Array Scan II (Cellomics). Analysis of the photographic images to determine numbers of live cells (proliferation), apoptotic cells and dead cells, were according to the methods described in U.S. Provisional Patent Application Ser. No. 60/406,714, which incorporated herein in its entirety.

E3 (His-APC11/APC2-"APC"), sequence (Q9NYG5 whole entry): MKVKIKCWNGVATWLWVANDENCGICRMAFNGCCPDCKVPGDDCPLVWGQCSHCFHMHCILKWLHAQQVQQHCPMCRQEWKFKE
E3 (His-APC11/APC2-"APC"), sequence (Q9UJX6 whole entry): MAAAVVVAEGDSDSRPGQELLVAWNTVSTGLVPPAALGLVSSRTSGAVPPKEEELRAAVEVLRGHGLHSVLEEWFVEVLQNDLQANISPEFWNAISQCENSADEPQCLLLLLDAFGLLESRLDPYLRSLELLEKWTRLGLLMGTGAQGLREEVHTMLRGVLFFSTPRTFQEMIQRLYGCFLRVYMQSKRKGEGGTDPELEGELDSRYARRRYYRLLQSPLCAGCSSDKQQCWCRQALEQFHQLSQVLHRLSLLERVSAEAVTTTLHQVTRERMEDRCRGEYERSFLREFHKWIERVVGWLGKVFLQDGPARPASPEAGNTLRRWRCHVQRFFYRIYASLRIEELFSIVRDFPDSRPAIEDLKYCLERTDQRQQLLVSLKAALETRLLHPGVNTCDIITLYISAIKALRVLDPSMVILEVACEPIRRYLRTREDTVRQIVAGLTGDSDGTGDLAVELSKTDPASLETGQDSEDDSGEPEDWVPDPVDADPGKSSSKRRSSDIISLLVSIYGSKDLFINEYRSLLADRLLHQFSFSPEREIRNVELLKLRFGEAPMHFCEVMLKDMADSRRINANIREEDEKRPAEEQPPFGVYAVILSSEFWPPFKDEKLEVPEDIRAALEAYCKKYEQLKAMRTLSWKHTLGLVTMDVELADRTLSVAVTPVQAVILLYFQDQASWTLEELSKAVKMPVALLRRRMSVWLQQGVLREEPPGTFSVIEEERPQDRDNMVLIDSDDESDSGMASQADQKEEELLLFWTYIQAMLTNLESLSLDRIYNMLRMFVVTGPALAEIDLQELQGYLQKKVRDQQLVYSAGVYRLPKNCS

Structure (SMILES): O=[N+]([O-])c1ccc(Oc2c(Cl)cc(S(=O)(=O)Nc3ccc(F)c(Cl)c3)cc2Cl)c(Cl)c1 [Example 16, 3,5-dichloro-N-(3-chloro-4-fluorophenyl)-4-(2-chloro-4-nitrophenoxy)benzene-sulfonamide]
APC Flag 8 pt [1]: + | Cell Titer-Aqueous, A549 6 pt [2]: + | PAD Assay, A549 6 pt [3]: − | Cell Titer-Aqueous, HELA 6 pt [4]: + | Cell Titer-Aqueous, HCT116 6 pt [5]: +

Structure (SMILES): N=C(NS(=O)(=O)c1cc(Cl)c(Oc2ccc([N+](=O)[O-])cc2)c(Cl)c1)c1ccncc1 [Example 62, N-{[3,5-dichloro-4-(4-nitrophenoxy)phenyl]sulfonyl}pyridine-4-carboximidamide]
APC Flag 8 pt [1]: − | PAD Assay, HELA 6 pt [6]: + | Cell Titer-Aqueous, A549 6 pt [2]: + | PAD Assay, A549 6 pt [3]: + | Cell Titer-Aqueous, HELA 6 pt [4]: + | Cell Titer-Aqueous, HCT116 6 pt [5]: +

Structure (SMILES): CC1CCCC(C)N1S(=O)(=O)c1cc(Cl)c(Oc2ccc([N+](=O)[O-])cc2Cl)c(Cl)c1 (stereo not drawn) [Example 140, 1-{[3,5-dichloro-4-(2-chloro-4-nitrophenoxy)phenyl]sulfonyl}-2,6-dimethylpiperidine]
APC Flag 8 pt [1]: + | Cell Titer-Aqueous, A549 6 pt [2]: − | Cell Titer-Aqueous, HELA 6 pt [4]: − | Cell Titer-Aqueous, HCT116 6 pt [5]: −

Structure (SMILES): Cc1cccc(C)c1N(S(=O)(=O)c1cc(Cl)c(Oc2ccc([N+](=O)[O-])cc2Cl)c(Cl)c1)S(=O)(=O)c1cc(Cl)c(Oc2ccc([N+](=O)[O-])cc2Cl)c(Cl)c1 [Example 145, 3,5-dichloro-4-(2-chloro-4-nitrophenoxy)-N-(2,6-dimethylphenyl)-N-(1,3-dichloro-2-(2-chloro-4-nitrophenoxy)5-sulfonylbenzene)benzenesulfonamide]
APC Flag 8 pt [1]: + | Cell Titer-Aqueous, A549 6 pt [2]: − | Cell Titer-Aqueous, HELA 6 pt [4]: − | Cell Titer-Aqueous, HCT116 6 pt [5]: −

Structure (SMILES): Cc1cccc(C)c1NS(=O)(=O)c1cc(Cl)c(Oc2ccc([N+](=O)[O-])cc2Cl)c(Cl)c1 [Example 146, 3,5-dichloro-4-(2-chloro-4-nitrophenoxy)-N-(2,6-dimethylphenyl)benzenesulfonamide]
APC Flag 8 pt [1]: + | PAD Assay, HELA 6 pt [6]: + | Cell Titer-Aqueous, A549 6 pt [2]: + | PAD Assay, A549 6 pt [3]: + | Cell Titer-Aqueous, HELA 6 pt [4]: + | Cell Titer-Aqueous, HCT116 6 pt [5]: +

Structure (SMILES): Cc1c(Cl)cccc1NS(=O)(=O)c1cc(Cl)c(Oc2ccc([N+](=O)[O-])cc2Cl)c(Cl)c1 [Example 147, 3,5-dichloro-N-(3-chloro-2-methylphenyl)-4-(2-chloro-4-nitrophenoxy)benzene-sulfonamide]
APC Flag 8 pt [1]: + | PAD Assay, HELA 6 pt [6]: + | Cell Titer-Aqueous, A549 6 pt [2]: + | PAD Assay, A549 6 pt [3]: + | Cell Titer-Aqueous, HELA 6 pt [4]: + | Cell Titer-Aqueous, HCT116 6 pt [5]: +

Structure (SMILES): CS/C(=N\S(=O)(=O)c1cc(Cl)c(Oc2ccc([N+](=O)[O-])cc2Cl)c(Cl)c1)Nc1ccc(Cl)cc1 [Example 149, methyl N-(4-chlorophenyl)-N′-{[3,5-dichloro-4-(2-chloro-4-nitrophenoxy)phenyl]sulfonyl} imidothiocarbamate]
APC Flag 8 pt [1]: + | PAD Assay, HELA 6 pt [6]: + | Cell Titer-Aqueous, A549 6 pt [2]: + | PAD Assay, A549 6 pt [3]: + | Cell Titer-Aqueous, HELA 6 pt [4]: + | Cell Titer-Aqueous, HCT116 6 pt [5]: +

Structure (SMILES): COc1cc(NS(=O)(=O)c2cc(Cl)c(Oc3ccc([N+](=O)[O-])cc3Cl)c(Cl)c2)c(OC)cc1Cl [Example 202, 3,5-dichloro-N-(4-chloro-2,5-dimethoxy-phenyl)-4-(2-chloro-4-nitrophenoxy)benzene-sulfonamide]
APC Flag 8 pt [1]: − | PAD Assay, HELA 6 pt [6]: + | Cell Titer-Aqueous, A549 6 pt [2]: + | PAD Assay, A549 6 pt [3]: + | Cell Titer-Aqueous, HELA 6 pt [4]: +

Structure (SMILES): N=C(NS(=O)(=O)c1cc(Cl)c(Oc2ccc([N+](=O)[O-])cc2Cl)c(Cl)c1)c1cccc([N+](=O)[O-])c1 [Example 210, N-{[3,5-dichloro-4-(2-chloro-4-nitro-phenoxy)phenyl]sulfonyl}-3-nitrobenzene-carboximidamide]
APC Flag 8 pt [1]: + | PAD Assay, HELA 6 pt [6]: + | Cell Titer-Aqueous, A549 6 pt [2]: + | PAD Assay, A549 6 pt [3]: + | Cell Titer-Aqueous, HELA 6 pt [4]: +

Structure (SMILES): O=C1Nc2cc(NS(=O)(=O)c3cc(Cl)c(Oc4ccc([N+](=O)[O-])cc4Cl)c(Cl)c3)ccc2OC1(F)F [Example 214, 3,5-dichloro-4-(2-chloro-4-nitrophenoxy)-N-(2,2-difluoro-3-oxo-3,4-dihydro-2H-1,4-benzoxazin-6-yl)benzenesulfonamide]
APC Flag 8 pt [1]: + | PAD Assay, HELA 6 pt [6]: + | Cell Titer-Aqueous, A549 6 pt [2]: − | PAD Assay, A549 6 pt [3]: + | Cell Titer-Aqueous, HELA 6 pt [4]: +

Structure (SMILES): O=[N+]([O-])c1ccc(Oc2c(Cl)cc(S(=O)(=O)Nc3cccc4cccnc34)cc2Cl)c(Cl)c1 [Example 219, 3,5-dichloro-4-(2-chloro-4-nitrophenoxy)-N-quinolin-8-ylbenzenesulfonamide]
APC Flag 8 pt [1]: + | PAD Assay, HELA 6 pt [6]: + | Cell Titer-Aqueous, A549 6 pt [2]: + | PAD Assay, HCT116 6 pt [7]: + | PAD Assay, A549 6 pt [3]: + | Cell Titer-Aqueous, HELA 6 pt [4]: +

Continued, in another order:

APC Flag 8 pt [1]: +
Structure (SMILES): O=[N+]([O-])c1ccc(Oc2c(Cl)cc(S(=O)(=O)Nc3ccc(F)cc3I)cc2Cl)c(Cl)c1 [Example 226, 3,5-dichloro-4-(2-chloro-4-nitrophenoxy)-N-(4-fluoro-2-iodophenyl)benzenesulfonamide]
PAD Assay, HELA 6 pt [6]: + | PAD Assay, HCT116 6 pt [7]: + | PAD Assay, A549 6 pt [3]: +

APC Flag 8 pt [1]: +
Structure (SMILES): O=[N+]([O-])c1ccc(Oc2c(Cl)cc(S(=O)(=O)Nc3ccccc3C(F)(F)F)cc2Cl)c(Cl)c1 [Example 230, 3,5-dichloro-4-(2-chloro-4-nitrophenoxy)-N-[2-(trifluoromethyl)phenyl]benzene-sulfonamide]
PAD Assay, HELA 6 pt [6]: + | PAD Assay, HCT116 6 pt [7]: + | PAD Assay, A549 6 pt [3]: +

APC Flag 8 pt [1]: +
Structure (SMILES): Cc1ccc(NS(=O)(=O)c2cc(Cl)c(Oc3ccc([N+](=O)[O-])cc3Cl)c(Cl)c2)c(Cl)c1 [Example 251, 3,5-dichloro-N-(2-chloro-4-methylphenyl)-4-(2-chloro-4-nitrophenoxy)benzene-sulfonamide]
PAD Assay, HELA 6 pt [6]: + | PAD Assay, HCT116 6 pt [7]: + | PAD Assay, A549 6 pt [3]: +

APC Flag 8 pt [1]: +
Structure (SMILES): O=S(=O)(Nc1ccc(C(F)(F)F)cc1Cl)c1ccc(Oc2ncc(C(F)(F)F)cc2Cl)cc1 [Example 255, N-[2-chloro-4-(trifluoromethyl)phenyl]-4-{[3-chloro-5-(trifluoromethyl)pyridin-2-yl]oxy}benzenesulfonamide]
PAD Assay, HELA 6 pt [6]: + | PAD Assay, HCT116 6 pt [7]: + | PAD Assay, A549 6 pt [3]: +

APC Flag 8 pt [1]: +
Structure (SMILES): O=[N+]([O-])c1ccc(Oc2c(Cl)cc(S(=O)(=O)Nc3ccccc3-n3cccc3)cc2Cl)c(Cl)c1 [Example 285, 3,5-dichloro-4-(2-chloro-4-nitrophenoxy)-N-[2-(1H-pyRRol-1-yl)phenyl]benzene-sulfonamide]
PAD Assay, HELA 6 pt [6]: + | PAD Assay, HCT116 6 pt [7]: + | PAD Assay, A549 6 pt [3]: +
